Source: patent publication US20260356957A1, “METHODS FOR TREATMENT OF NON-SMALL CELL LUNG CANCER (NSCLC)” (Janssen Biotech, Inc., priority 2023, published 2026)
Several values for one entry are separate records, joined by “and”; a condition that tells them apart may be missing. Equal values may be shown once. Entries after “also recorded” stand apart in the source; their conditions may differ.

How the values were obtained:
Format in all cases: in vivo, human
[1] = system: EGFR-mutated locally advanced or metastatic NSCLC; assay: MARIPOSA Phase 3, duration of response by BICR
[2] = system: EGFR-mutated locally advanced or metastatic NSCLC; assay: MARIPOSA Phase 3, time to symptomatic progression (TTSP)
[3] = system: EGFR-mutated locally advanced or metastatic NSCLC; assay: MARIPOSA Phase 3, progression-free survival by BICR; details: for Median progression-free survival (95% CI): median follow-up 22.0 months
Description: The primary endpoint of the study is PFS (using RECIST v1.1 guidelines) as assessed by blinded independent central review (BICR).

Ex19del and L858R ctDNA = assay: MARIPOSA Phase 3, EGFRm ctDNA in blood by ddPCR; details: patients with matched samples
Description: Detection of circulating tumor (ctDNA) and co-mutations were analyzed by next-generation sequencing (NGS) of blood at baseline.
Detection of ctDNA and co-mutations were analyzed by next-generation sequencing (NGS) of blood at baseline. Detection and clearance of Ex19del and L858R ctDNA in blood were analyzed with ddPCR at baseline and C3D1.
Detectable EGFRm ctDNA at Baseline and On Treatment: Detection and clearance of Ex19del and L858R ctDNA in the blood were analyzed by ddPCR (Ex19del or L858R by Biodesix ddPCR).

[4] = system: EGFR-mutated NSCLC with brain metastasis; assay: MARIPOSA Phase 3, intracranial PFS by BICR in participants with history of brain metastasis
Description: • 1. […] Intracranial PFS [Time Frame: Up to approximately 42 months]. […] Incidence and Severity of Adverse Events (AEs) [Time Frame: Up to approximately 60 months]. Incidence and severity of treatment emergent adverse events (TEAEs) will be reported. Any adverse event occurring at or after the initial administration of study treatment through the day of last dose plus 30 days, or until the start of subsequent anticancer therapy (if earlier), is considered to be treatment emergent. • 8. Number of Participants with Clinical Laboratory Abnormalities [Time Frame: Up to approximately 60 months]. Number of participants with clinical laboratory abnormalities (serum chemistry, hematology, blood coagulation, and urine samples) will be reported. • 9. Number of Participants with Vital Signs Abnormalities [Time Frame: Up to approximately 60 months]. Number of participants with vital signs abnormalities (temperature, heart rate, respiratory rate, oxygen saturation, blood pressure) will be reported. • 10. Number of Participants with Physical Examination Abnormalities [Time Frame: Up to approximately 60 months]. Number of participants with physical examination abnormalities will be reported. • 11. […] Number of Participants with Anti-Amivantamab Antibodies [Time Frame: Up to approximately 42 months]. […] Change from Baseline in Non-Small Cell Lung Cancer-Symptom Assessment Questionnaire (NCSLC-SAQ) [Time Frame: Baseline Up to approximately 42 months]. The NSCLC-SAQ contains 7 items that assess cough, pain, dyspnea, fatigue, and poor appetite over a 7-day recall period. Each multi-item scale and individual item will be summarized using count and percent by visit. • 15. Change from Baseline in European Organization of Research and Treatment of Cancer Quality of Life Questionnaire Core 30 (EORTC-QLQ-C30) [Time Frame: Baseline Up to approximately 42 months]. EORTC-QLQ-C30 is a core 30-item questionnaire for evaluating the health-related quality of life (HRQOL) of participants participating in cancer clinical studies. • 16.

[5] = system: EGFR-mutated locally advanced or metastatic NSCLC; assay: MARIPOSA Phase 3, overall survival; details: for Median overall survival (95% CI): interim analysis
[6] = system: EGFR-mutated locally advanced or metastatic NSCLC; assay: MARIPOSA Phase 3, time to subsequent therapy (TTST) and subsequent therapy
[7] = system: EGFR-mutated locally advanced or metastatic NSCLC; assay: MARIPOSA Phase 3, extracranial progression-free survival by BICR; details: CNS-only first progression censored
Description: The efficacy population included all patients who had undergone randomization. Extracranial progression-free survival was defined as time from randomization to disease progression (detected by extracranial scans) or death. If first progression was detected solely in the CNS, these patients were censored at the time of CNS disease progression. The dashed lines indicate the median extracranial progression-free survival in the two groups; tick marks indicate censoring of data. 95% CI widths have not been adjusted for multiplicity and cannot be used to infer definitive treatment effects. CNS denotes central nervous system. Since MARIPOSA performed serial brain imaging, a sensitivity analysis was conducted censoring CNS-only, first progression events.

[8] = system: EGFR-mutated locally advanced or metastatic NSCLC; assay: MARIPOSA Phase 3, objective response by BICR (RECIST v1.1)

C=CC(=O)Nc1cc(Nc2nccc(-c3cn(C)c4ccccc34)n2)c(OC)cc1N(C)CCN(C)C [Osimertinib]
Response duration, Median (95% CI) among all responders [1]: 14.9 (12.9-17.5) mo
Response duration, Median (95% CI) among confirmed responders [1]: 16.8 (14.8-18.5) mo
Censored (DOR) ([1]; confirmed responders): 151 (48.1%) (%)
DOR time to event, 25th percentile (95% CI) ([1]; confirmed responders): 9.26 (9.13, 10.25) months
Duration of response >=6 months ([1]; confirmed responders): 267 (65.0%) (%)
Duration of response >=12 months ([1]; confirmed responders): 181 (57.6%) (%)
Duration of response >=18 months ([1]; confirmed responders): 86 (27.4%) (%)
Duration of response >=24 months ([1]; confirmed responders): 21 (6.7%) (%)
Event (DOR) ([1]; confirmed responders): 163 (51.9%) (%)
Median duration of response (95% CI) ([1]; confirmed responders): 16.76 (14.75, 18.53) months
DOR time to event, 75th percentile (95% CI) ([1]; confirmed responders, NE = not estimable): NE (NE, NE)
Median duration of response (95% CI) ([1]; confirmed responders, listed as osimertinib): 16.8 months
Confirmed Responders (Confirmed CR + Confirmed PR) ([1]; number of patients, measurable disease at baseline): 314
Censored (TTSP) ([2]; Full Analysis Set): 202 (61.1%) (%)
Death without Symptomatic PD ([2]; Full Analysis Set): 49 (11.4%) (%)
Event (TTSP) ([2]; Full Analysis Set): 167 (38.9%) (%)
Symptomatic PD ([2]; Full Analysis Set): 118 (27.5%) (%)
TTSP 6-month event-free rate (95% CI) ([2]; Full Analysis Set): 0.90 (0.87, 0.93)
TTSP 12-month event-free rate (95% CI) ([2]; Full Analysis Set): 0.79 (0.74, 0.82)
TTSP 18-month event-free rate (95% CI) ([2]; Full Analysis Set): 0.67 (0.63, 0.72)
TTSP 24-month event-free rate (95% CI) ([2]; Full Analysis Set): 0.59 (0.53, 0.64)
TTSP 30-month event-free rate (95% CI) ([2]; Full Analysis Set): 0.49 (0.40, 0.58)
TTSP Median (95% CI) ([2]; NE = not estimable): 29.31 (29.31, NE) months
TTSP time to event, 75th percentile (95% CI) ([2]; NE = not estimable): NE (NE, NE)
PFS 6-month event-free rate (95% CI) [3]: 0.85 (0.83, 0.88)
PFS 18-month event-free rate (95% CI) [3]: 0.48 (0.43, 0.53)
PFS 24-month event-free rate (95% CI) [3]: 0.34 (0.26, 0.39)
PFS 30-month event-free rate (95% CI) [3]: 0.30 (0.24, 0.36)
Censored (PFS) ([3]; Full Analysis Set): 177 (41.3%) (%)
Event (PFS) ([3]; Full Analysis Set): 252 (58.7%) (%)
PFS time to event, 25th percentile (95% CI) ([3]; Full Analysis Set): 9.23 (7.49, 10.94) months
PFS time to event, 75th percentile (95% CI) ([3]; Full Analysis Set): NE (27.50, NE)
Progression-free survival, Patients (95% CI) at 12 months ([3]; efficacy population): 65 (60-69) %
Progression-free survival, Patients (95% CI) at 18 months ([3]; efficacy population): 48 (43-53) %
Progression-free survival, Patients (95% CI) at 24 months ([3]; efficacy population): 34 (28-39) %
Median progression-free survival (95% CI) [3]: 16.59 (14.78, 18.46) months
Median progression-free survival (95% CI) ([3]; listed as osimertinib): 16.6 months and 16.59 months
Detectable EGFRm ctDNA at C3D1 (Week 9) (Ex19del and L858R ctDNA): 15%
Event (intracranial PFS) [4]: 75 (43.6%) (%)
Intracranial PFS 6-month event-free rate (95% CI) [4]: 0.88 (0.82, 0.92)
Intracranial PFS time to event, 75th percentile (95% CI) ([4]; NE = not estimable): NE (NE, NE)
Censored (OS) ([5]; Full Analysis Set): 312 (72.7%) (%)
Event (OS) ([5]; Full Analysis Set): 117 (27.3%) (%)
OS 6-month event-free rate (95% CI) ([5]; Full Analysis Set): 0.96 (0.93, 0.97)
OS 12-month event-free rate (95% CI) ([5]; Full Analysis Set): 0.88 (0.85, 0.91)
OS 18-month event-free rate (95% CI) ([5]; Full Analysis Set): 0.79 (0.75, 0.83)
OS 30-month event-free rate (95% CI) ([5]; Full Analysis Set): 0.62 (0.52, 0.70)
OS time to event, 25th percentile (95% CI) ([5]; Full Analysis Set): 20.30 (18.00, 23.59) months
OS time to event, 75th percentile (95% CI) ([5]; NE = not estimable): NE (NE, NE)
Overall survival, Patients (95% CI) at 12 months ([5]; efficacy population): 88 (85-91) %
Overall survival, Patients (95% CI) at 18 months ([5]; efficacy population): 79 (75-83) %
Overall survival, Patients (95% CI) at 24 months ([5]; efficacy population): 69 (64-74) %
Median overall survival (95% CI) ([5]; NE = not estimable): NE (NE, NE)
Median overall survival (95% CI) ([5]; NE = not estimable, listed as osimertinib): not reached; also recorded: could not be estimated
Censored (TTST) ([6]; Full Analysis Set): 232 (54.1%) (%)
Event (TTST) ([6]; Full Analysis Set): 197 (45.9%) (%)
TTST 6-month event-free rate (95% CI) ([6]; Full Analysis Set): 0.91 (0.88, 0.93)
TTST 12-month event-free rate (95% CI) ([6]; Full Analysis Set): 0.77 (0.73, 0.81)
TTST 18-month event-free rate (95% CI) ([6]; Full Analysis Set): 0.63 (0.58, 0.67)
TTST Median (95% CI) ([6]; Full Analysis Set): 24.08 (22.01, 28.98) months
TTST time to event, 25th percentile (95% CI) ([6]; Full Analysis Set): 13.11 (10.58, 14.36) months
TTST time to event, 75th percentile (95% CI) ([6]; NE = not estimable): NE (NE, NE)
Median extracranial progression-free survival (95% CI) [7]: 18.4 months
Best overall response: Not evaluable [8]: 11 (3) no. (%)
Best overall response: Progressive disease [8]: 11 (3) no. (%)
Best overall response: Stable disease [8]: 42 (10) no. (%)
Best overall response: Complete response ([8]; all responders): 15 (4) no. (%)
Best overall response: Partial response ([8]; all responders): 335 (81) no. (%)
Complete Response (CR) ([8]; best overall response): 15 (3.0%) (%)
Not Evaluable (NE) ([8]; best overall response): 11 (2.7%) (%)
Partial Response (PR) ([8]; best overall response): 335 (80.9%) (%)
Progressive Disease (PD) ([8]; best overall response): 11 (2.7%) (%)
Objective response rate, Patients (95% CI), all responders ([8]; measurable disease at baseline): 85 (81-88) %
Objective response, Patients (95% CI) including only confirmed responders ([8]; measurable disease at baseline): 76 (71-80) %
Objective response rate (CR + PR) ([8]; measurable disease at baseline, RECIST v1.1): 350 (84.5%) (%)
Objective response rate, Patients (95% CI), all responders ([8]; measurable disease at baseline, listed as osimertinib): 85%
